# According to patent US20230295234A1, “ANTIMICROBIAL PEPTIDOMIMETICS” (SPEXIS AG, priority 2020, published 2023):
# Bridge positions count the residues as written; N and C are the ends. Square brackets hold non-standard residues; d marks the D form. Peptide text beside a SMILES is read from it. Gly(N-2-aminoethyl) = NCCNCC(=O)O; Hyp = O=C(O)[C@@H]1C[C@@H](O)CN1; Pen = CC(C)(S)[C@H](N)C(=O)O; dDab = NCC[C@@H](N)C(=O)O; Dab = NCC[C@H](N)C(=O)O
# Key:
# [1] = test system: human red blood cells (hRBC); assay: Hemolysis of human red blood cells; format: cell-based; details: red cells of human, 1 h
# How it was run: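 PBS-washed human red blood cells (20% v/v) were incubated with peptide at 200 μg/mL for 1 h at 37 °C with shaking. Supernatant OD was read at 540 nm after 8-fold dilution. Hemolysis is expressed as percent of the water control.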
# [2] = test system: Escherichia coli ATCC 25922; details: ATCC 25922
# How it was run: (§1)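 Two-fold serial dilutions of peptide, in water with polysorbate 80 (0.002% final), met bacteria adjusted to 0.5 McFarland then diluted to about 5×10^5 CFU/mL. Medium was cation-adjusted Mueller-Hinton II broth; peptide stocks were 1 mg/mL in sterile water.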
# [3] = test system: Escherichia coli MCR-1 Af 45; details: MCR-1 Af 45
# How it was run: as §1
# [4] = test system: Klebsiella pneumoniae SSI3010; details: SSI3010
# How it was run: as §1
smiles,measurement,setting,value
"CC[C@H](C)[C@H](NC(=O)[C@@H]1C[C@@H](O)CN1C(=O)[C@@H](NC(=O)[C@@H]1C[C@@H](O)CN1C(=O)[C@H](CCCCN)NC(=O)[C@@H](N)CCCCN)C(C)C)C(=O)N[C@H](C(=O)N[C@@H](Cc1ccc(O)cc1)C(=O)N[C@@H]1C(=O)N[C@@H](Cc2c[nH]cn2)C(=O)N[C@@H](CCCNC(=N)N)C(=O)N[C@@H](CCN)C(=O)N[C@@H]([C@@H](C)O)C(=O)N[C@H](CCN)C(=O)N[C@@H](CCCCN)C(=O)N[C@H](C(=O)N[C@@H](CCN)C(=O)N[C@@H](CCCNC(=N)N)C(=O)N[C@@H](Cc2ccc(O)cc2)C(=O)O)CSSC1(C)C)[C@@H](C)O [Example 122, Lys-Lys-Hyp-Val-Hyp-Ile-Thr-Tyr-Pen-His-Arg-Dab-Thr-^DDab-Lys-Cys-Dab-Arg-Tyr] (HELM PEPTIDE1{K.K.[Hyp].V.[Hyp].I.T.Y.[Pen].H.R.[Dab].T.[NCC[C@@H](N[*:1])C(=O)[*:2]].K.C.[Dab].R.Y}$PEPTIDE1,PEPTIDE1,9:R3-16:R3$$$V2.0)",Hemolysis at 0.2 g/L,[1],0%
same,Escherichia coli ATCC 25922 MIC,[2],0.0625 µg/mL
same,Escherichia coli MCR-1 Af 45 MIC,[3],0.125 µg/mL
same,Klebsiella pneumoniae SSI3010 MIC,[4],0.125 µg/mL
"CC[C@H](C)[C@H](NC(=O)[C@@H]1C[C@@H](O)CN1C(=O)[C@@H](NC(=O)[C@@H]1C[C@@H](O)CN1C(=O)[C@H](CCCCN)NC(=O)[C@@H](N)CCCCN)C(C)C)C(=O)N[C@H](C(=O)N[C@@H](Cc1ccc(O)cc1)C(=O)N[C@@H]1C(=O)N[C@@H](CC(N)=O)C(=O)N[C@@H](CCCNC(=N)N)C(=O)N[C@@H](CCN)C(=O)N[C@@H]([C@@H](C)O)C(=O)N[C@H](CCN)C(=O)N[C@@H](CCCCN)C(=O)N[C@H](C(=O)N[C@@H](CO)C(=O)N[C@@H](CCCNC(=N)N)C(=O)N[C@@H](Cc2ccc(O)cc2)C(=O)O)CSSC1(C)C)[C@@H](C)O [Example 123, Lys-Lys-Hyp-Val-Hyp-Ile-Thr-Tyr-Pen-Asn-Arg-Dab-Thr-^DDab-Lys-Cys-Ser-Arg-Tyr] (HELM PEPTIDE1{K.K.[Hyp].V.[Hyp].I.T.Y.[Pen].N.R.[Dab].T.[NCC[C@@H](N[*:1])C(=O)[*:2]].K.C.S.R.Y}$PEPTIDE1,PEPTIDE1,9:R3-16:R3$$$V2.0)",Hemolysis at 0.2 g/L,[1],0%
same,Escherichia coli ATCC 25922 MIC,[2],0.125 µg/mL
same,Escherichia coli MCR-1 Af 45 MIC,[3],0.0625 µg/mL
same,Klebsiella pneumoniae SSI3010 MIC,[4],0.25 µg/mL
"CC[C@H](C)[C@H](NC(=O)[C@@H]1C[C@@H](O)CN1C(=O)[C@@H](NC(=O)[C@@H]1C[C@@H](O)CN1C(=O)[C@H](CCCCN)NC(=O)[C@@H](N)CCCCN)C(C)C)C(=O)N[C@H](C(=O)N[C@@H](Cc1ccc(O)cc1)C(=O)N[C@@H]1C(=O)N[C@@H](CC(N)=O)C(=O)N[C@@H](CCCNC(=N)N)C(=O)N[C@@H](CCN)C(=O)N[C@@H]([C@@H](C)O)C(=O)N[C@H](CCN)C(=O)N[C@@H](CCCCN)C(=O)N[C@H](C(=O)N[C@@H](CCN)C(=O)N[C@@H](CCCN)C(=O)N[C@@H](Cc2ccc(O)cc2)C(=O)O)CSSC1(C)C)[C@@H](C)O [Example 124, Lys-Lys-Hyp-Val-Hyp-Ile-Thr-Tyr-Pen-Asn-Arg-Dab-Thr-^DDab-Lys-Cys-Dab-Orn-Tyr] (HELM PEPTIDE1{K.K.[Hyp].V.[Hyp].I.T.Y.[Pen].N.R.[Dab].T.[NCC[C@@H](N[*:1])C(=O)[*:2]].K.C.[Dab].[Orn].Y}$PEPTIDE1,PEPTIDE1,9:R3-16:R3$$$V2.0; N-terminus and C-terminus assumed)",Hemolysis at 0.2 g/L,[1],0%
same,Escherichia coli ATCC 25922 MIC,[2],0.125 µg/mL
same,Escherichia coli MCR-1 Af 45 MIC,[3],0.0625 µg/mL
same,Klebsiella pneumoniae SSI3010 MIC,[4],0.25 µg/mL
"CC[C@H](C)[C@H](NC(=O)[C@@H]1C[C@@H](N)CN1C(=O)[C@@H](NC(=O)[C@@H]1C[C@@H](O)CN1C(=O)[C@H](CCCCN)NC(=O)[C@@H](N)CCCCN)C(C)C)C(=O)N[C@H](C(=O)N[C@@H](Cc1ccc(O)cc1)C(=O)N[C@@H]1C(=O)N[C@@H](CC(N)=O)C(=O)N[C@@H](CCCNC(=N)N)C(=O)N[C@@H](CCN)C(=O)N[C@@H]([C@@H](C)O)C(=O)N[C@H](CCN)C(=O)N[C@@H](CCCCN)C(=O)N[C@H](C(=O)N[C@@H](CCN)C(=O)N[C@@H](CCCNC(=N)N)C(=O)N[C@@H](Cc2ccc(O)cc2)C(=O)O)CSSC1(C)C)[C@@H](C)O [Example 125, Lys-Lys-Hyp-Val-Pro((4R)NH2)-Ile-Thr-Tyr-Pen-Asn-Arg-Dab-Thr-^DDab-Lys-Cys-Dab-Arg-Tyr] (HELM PEPTIDE1{K.K.[Hyp].V.[N[C@@H]1C[C@@H](C(=O)[*:2])N([*:1])C1].I.T.Y.[Pen].N.R.[Dab].T.[NCC[C@@H](N[*:1])C(=O)[*:2]].K.C.[Dab].R.Y}$PEPTIDE1,PEPTIDE1,9:R3-16:R3$$$V2.0)",Hemolysis at 0.2 g/L,[1],0%
same,Escherichia coli ATCC 25922 MIC,[2],≤0.03125 µg/mL
same,Escherichia coli MCR-1 Af 45 MIC,[3],0.0625 µg/mL
same,Klebsiella pneumoniae SSI3010 MIC,[4],0.0625 µg/mL
"CC[C@H](C)[C@H](NC(=O)CN(CCN)C(=O)[C@@H](NC(=O)[C@@H]1C[C@@H](O)CN1C(=O)[C@H](CCCCN)NC(=O)[C@@H](N)CCCCN)C(C)C)C(=O)N[C@H](C(=O)N[C@@H](Cc1ccc(O)cc1)C(=O)N[C@@H]1C(=O)N[C@@H](CC(N)=O)C(=O)N[C@@H](CCCNC(=N)N)C(=O)N[C@@H](CCN)C(=O)N[C@@H]([C@@H](C)O)C(=O)N[C@H](CCN)C(=O)N[C@@H](CCCCN)C(=O)N[C@H](C(=O)N[C@@H](CCN)C(=O)N[C@@H](CCCNC(=N)N)C(=O)N[C@@H](Cc2ccc(O)cc2)C(=O)O)CSSC1(C)C)[C@@H](C)O [Example 126, Lys-Lys-Hyp-Val-Ndab-Ile-Thr-Tyr-Pen-Asn-Arg-Dab-Thr-^DDab-Lys-Cys-Dab-Arg-Tyr] (HELM PEPTIDE1{K.K.[Hyp].V.[NCCN(CC(=O)[*:2])[*:1]].I.T.Y.[Pen].N.R.[Dab].T.[NCC[C@@H](N[*:1])C(=O)[*:2]].K.C.[Dab].R.Y}$PEPTIDE1,PEPTIDE1,9:R3-16:R3$$$V2.0)",Hemolysis at 0.2 g/L,[1],0%
same,Escherichia coli ATCC 25922 MIC,[2],≤0.03125 µg/mL
same,Escherichia coli MCR-1 Af 45 MIC,[3],≤0.03125 µg/mL
same,Klebsiella pneumoniae SSI3010 MIC,[4],0.0625 µg/mL
"CC[C@H](C)[C@H](NC(=O)[C@@H]1C[C@@H](O)CN1C(=O)[C@@H](NC(=O)[C@@H]1C[C@@H](O)CN1C(=O)[C@H](CCCCN)NC(=O)[C@@H](N)CCCCN)C(C)C)C(=O)N[C@H](C(=O)N[C@@H](Cc1ccc(O)cc1)C(=O)N[C@@H]1C(=O)N[C@@H](CC(N)=O)C(=O)N[C@@H](CCCNC(=N)N)C(=O)N[C@@H](CCN)C(=O)N[C@@H]([C@@H](C)O)C(=O)N[C@H](CCN)C(=O)N[C@@H](CCCCN)C(=O)N[C@H](C(=O)N[C@@H](Cc2ccc(O)cc2)C(=O)N[C@@H](CCCNC(=N)N)C(=O)N[C@@H](Cc2ccc(O)cc2)C(=O)O)CSSC1(C)C)[C@@H](C)O [Example 128, Lys-Lys-Hyp-Val-Hyp-Ile-Thr-Tyr-Pen-Asn-Arg-Dab-Thr-^DDab-Lys-Cys-Tyr-Arg-Tyr] (HELM PEPTIDE1{K.K.[Hyp].V.[Hyp].I.T.Y.[Pen].N.R.[Dab].T.[NCC[C@@H](N[*:1])C(=O)[*:2]].K.C.Y.R.Y}$PEPTIDE1,PEPTIDE1,9:R3-16:R3$$$V2.0; N-terminus and C-terminus assumed)",Hemolysis at 0.2 g/L,[1],0%
same,Escherichia coli ATCC 25922 MIC,[2],0.125 µg/mL
same,Escherichia coli MCR-1 Af 45 MIC,[3],0.0625 µg/mL
same,Klebsiella pneumoniae SSI3010 MIC,[4],0.125 µg/mL
"CC[C@H](C)[C@H](NC(=O)CN(CCN)C(=O)[C@@H](NC(=O)[C@@H]1C[C@@H](O)CN1C(=O)[C@H](CCCCN)NC(=O)[C@@H](N)CCCCN)C(C)C)C(=O)N[C@H](C(=O)N[C@@H](Cc1ccc(O)cc1)C(=O)N[C@@H]1C(=O)N[C@@H](CC(N)=O)C(=O)N[C@@H](CCCNC(=N)N)C(=O)N[C@@H](CCN)C(=O)N[C@@H]([C@@H](C)O)C(=O)N[C@H](CCN)C(=O)N[C@@H](CCCCN)C(=O)N[C@H](C(=O)N[C@@H](Cc2ccc(O)cc2)C(=O)N[C@@H](CCCNC(=N)N)C(=O)N[C@@H](Cc2ccc(O)cc2)C(=O)O)CSSC1(C)C)[C@@H](C)O [Example 129, Lys-Lys-Hyp-Val-Ndab-Ile-Thr-Tyr-Pen-Asn-Arg-Dab-Thr-^DDab-Lys-Cys-Tyr-Arg-Tyr] (HELM PEPTIDE1{K.K.[Hyp].V.[NCCN(CC(=O)[*:2])[*:1]].I.T.Y.[Pen].N.R.[Dab].T.[NCC[C@@H](N[*:1])C(=O)[*:2]].K.C.Y.R.Y}$PEPTIDE1,PEPTIDE1,9:R3-16:R3$$$V2.0)",Hemolysis at 0.2 g/L,[1],0%
same,Escherichia coli ATCC 25922 MIC,[2],0.25 µg/mL
same,Escherichia coli MCR-1 Af 45 MIC,[3],0.0625 µg/mL
same,Klebsiella pneumoniae SSI3010 MIC,[4],0.125 µg/mL
"CC[C@H](C)[C@H](NC(=O)CN(CCN)C(=O)[C@@H](NC(=O)[C@@H]1C[C@@H](O)CN1C(=O)[C@H](CCCCN)NC(=O)CNCCN)C(C)C)C(=O)N[C@H](C(=O)N[C@@H](Cc1ccc(O)cc1)C(=O)N[C@@H]1C(=O)N[C@@H](CC(N)=O)C(=O)N[C@@H](CCCNC(=N)N)C(=O)N[C@@H](CCN)C(=O)N[C@@H]([C@@H](C)O)C(=O)N[C@H](CCN)C(=O)N[C@@H](CCCCN)C(=O)N[C@H](C(=O)N[C@@H](Cc2ccc(O)cc2)C(=O)N[C@@H](CCCNC(=N)N)C(=O)N[C@@H](Cc2ccc(O)cc2)C(=O)O)CSSC1(C)C)[C@@H](C)O [Example 130, Ndab-Lys-Hyp-Val-Ndab-Ile-Thr-Tyr-Pen-Asn-Arg-Dab-Thr-^DDab-Lys-Cys-Tyr-Arg-Tyr] (H-[Gly(N-2-aminoethyl)]K[Hyp]V[Gly(N-2-aminoethyl)]ITY[Pen]NR[Dab]T[dDab]KCYRY-OH; disulfide 9-16)",Hemolysis at 0.2 g/L,[1],0%
same,Escherichia coli ATCC 25922 MIC,[2],0.25 µg/mL
same,Escherichia coli MCR-1 Af 45 MIC,[3],0.125 µg/mL
same,Klebsiella pneumoniae SSI3010 MIC,[4],0.25 µg/mL
